Measurements: ChEMBL document CHEMBL1148729, “Specific plant terpenoids and lignoids possess potent antiviral activities against severe acute respiratory syndrome coronavirus” (J Med Chem, 2007)

Tests used:
[1] = tested on: SARS-CoV; assay: Inhibition of SARS coronavirus-induced cytopathogenicity in Vero E6 cells at 10 uM; type: functional; conditions: Severe acute respiratory syndrome-related coronavirus
[2] = tested on: SARS-CoV; assay: Inhibition of SARS coronavirus-induced cytopathogenicity in Vero E6 cells at 20 uM; type: functional; conditions: Severe acute respiratory syndrome-related coronavirus
[3] = Selectivity index, Ratio of CC50 for Vero E6 cells to EC50 for SARS coronavirus; type: functional
[4] = tested on: SARS-CoV; assay: Inhibition of SARS virus-induced cytopathogenicity in Vero E6 cells at 3.3 uM; type: functional; conditions: Severe acute respiratory syndrome-related coronavirus
[5] = tested on: SARS-CoV; assay: Antiviral activity against SARS coronavirus in Vero E6 cells assessed as inhibition of viral replication by ELISA; type: functional, organism-based; conditions: Severe acute respiratory syndrome-related coronavirus
[6] = Cytotoxicity against Vero E6 cells by MTT assay; type: cell-based; conditions: chlorocebus sabaeus
[7] = tested on: SARS-CoV; assay: Inhibition of SARS virus-induced cytopathogenicity in Vero E6 cells at 1 uM; type: functional; conditions: Severe acute respiratory syndrome-related coronavirus
[8] = biological target: Replicase polyprotein 1a (Severe acute respiratory syndrome-related coronavirus, UniProt P0C6U8); assay: Inhibition of SARS coronavirus 3CL protease

Compound | inhibition at 10 µM [1] [%] | inhibition at 20 µM [2] [%] | Ratio CC50/EC50 [3] | inhibition at 3.3 µM [4] [%] | EC50 [5] [µM] | CC50 [6] [µM] | inhibition at 1 µM [7] [%] | IC50 [8] [µM] | Ki [8] [µM]
COc1cc(C2c3cc(OC(=O)c4ccccc4)c(OC)cc3C[C@@H](CO)[C@@H]2CO)ccc1OC(=O)c1ccccc1 (stereo not given in full) | < 25 | < 25 | – | – | – | – | – | – | –
CC(=O)Oc1cc2c(cc1C(C)C)C=C[C@H]1C(C)(C)[C@@H](OC(C)=O)CC[C@]21C | 25 | < 25 | 193 | 25 | 1.57 | 303 | – | – | –
CC(C)C1=C(O)C(=O)C2=C(C=C[C@H]3C(C)(C)CCC[C@]23C)C1=O | 25 | < 25 | 16.2 | – | 5.55 | 89.7 | – | – | –
CC(C)C1=C[C@]2(O)CC[C@H]3C(C)(C)CCC[C@]3(C)C2=CC1=O | < 25 | < 25 | >510 | 50 | 1.47 | > 750 | – | – | –
COc1c(C(C)C)cc2c(c1O)[C@@]1(C)CCCC(C)(C)[C@@H]1C[C@@H]2O | < 25 | < 25 | 111 | – | 1.15 | 127 | – | – | –
C[C@@H]1CC[C@H]2[C@@](C)(CO)[C@H]3C[C@@]12CC[C@@]3(C)O | 25 | < 25 | – | 50 | > 10 | > 750 | – | – | –
CC(C)c1ccc2c(c1)C(=O)C[C@H]1C(C)(C)CCC[C@]21C | < 25 | < 25 | 76.3 | – | 4 | 305 | – | – | –
CC1=C[C@@H]2[C@@H](CC1)[C@](C)(O)CC[C@H]2C(C)C | 25 | < 25 | 17.3 | 25 | 4.44 | 76.8 | 50 | – | –
C=C(C)[C@@H]1CC[C@]2(C(=O)O)CC[C@]3(C)[C@H](CC[C@@H]4[C@@]5(C)CC[C@H](O)C(C)(C)[C@@H]5CC[C@]43C)[C@@H]12 [BETULINIC ACID] | 25 | < 25 | <15 | 50 | > 10 | 150 | – | 10 | 8.2
C=C(C)[C@@H]1CC[C@]2(C(=O)O)CC[C@]3(C)[C@H](CC[C@@H]4[C@@]5(C)CCC(=O)C(C)(C)[C@@H]5CC[C@]43C)[C@@H]12 [BETUNOLIC ACID] | < 25 | < 25 | 180 | – | 0.63 | 112 | – | > 100 | –
C=C[C@@]1(C)CC(=O)[C@]2(O)[C@@]3(C)[C@@H](O)CCC(C)(C)[C@@H]3[C@H](O)[C@H](OC(C)=O)[C@@]2(C)O1 [COLFORSIN] | 25 | < 25 | 89.8 | 50 | 7.5 | 674 | – | – | –
COc1c(C(C)C)cc2c(c1O)[C@@]1(C)CCCC(C)(C)[C@@H]1CC2=O [CRYPTOJAPONOL] | < 25 | < 25 | <7.9 | – | > 10 | 78.5 | – | – | –
COc1cc(/C=C/C(=O)CC(=O)/C=C/c2ccc(O)c(OC)c2)ccc1O [CURCUMIN] | 50 | 25 | – | – | > 10 | > 250 | – | 40 | –
CC(C)c1cc2c(cc1O)[C@@]1(C)CCCC(C)(C)[C@@H]1CC2 [FERRUGINOL] | < 25 | < 25 | 58 | 25 | 1.39 | 80.4 | – | – | –
O=C1OC[C@H](Cc2ccc3c(c2)OCO3)[C@H]1Cc1ccc2c(c1)OCO2 [HINOKININ] | 25 | < 25 | – | 25 | > 10 | > 750 | 50 | > 100 | –
C=CCc1ccc(O)c(-c2ccc(O)c(CC=C)c2)c1 [HONOKIOL] | < 25 | < 25 | 13.7 | 25 | 6.5 | 88.9 | – | – | –
C=CCc1ccc(O)c(-c2cc(CC=C)ccc2O)c1 [MAGNOLOL] | < 25 | < 25 | 18 | 50 | 3.8 | 68.3 | – | – | –
O=C(Nc1ccc([N+](=O)[O-])cc1Cl)c1cc(Cl)ccc1O [NICLOSAMIDE] | 25 | < 25 | >221 | 25 | < 0.1 | 22.1 | 50 | 40 | –
C=C1CC[C@@H]2[C@](C)(CCC[C@]2(C)C(=O)O)[C@H]1CCC1=CCOC1=O [PINUSOLIDIC ACID] | < 25 | < 25 | >159 | – | 4.71 | > 750 | – | – | –
O=C1OC[C@H](Cc2ccc3c(c2)OCO3)/C1=C\c1ccc2c(c1)OCO2 [SAVININ] | < 25 | < 25 | >667 | – | 1.13 | > 750 | – | 25 | 9.1
CC(C)c1cc2c(cc1O)[C@@]1(C)CCCC(C)(C)[C@@H]1CC2=O [SUGIOL] | < 25 | < 25 | – | – | – | – | – | – | –
CC(C)[C@@H]1NC(=O)[C@H](C)OC(=O)[C@@H](C(C)C)NC(=O)[C@@H](C(C)C)OC(=O)[C@H](C(C)C)NC(=O)[C@H](C)OC(=O)[C@@H](C(C)C)NC(=O)[C@@H](C(C)C)OC(=O)[C@H](C(C)C)NC(=O)[C@H](C)OC(=O)[C@@H](C(C)C)NC(=O)[C@@H](C(C)C)OC1=O [VALINOMYCIN] | 25 | < 25 | 41.4 | 25 | 1.63 | 67.5 | 50 | – | –
